This is an account of results in patent US20040053893A1, “Method of assaying iysophospholipase d activity” (priority 2000, published 2004).

The test system of one experiment is LPLD. Briefly: Substrate specificity of purified LPLD or recombinant LPLD (Table 1). Format: biochemical. The source says: The thus-obtained purified LPLD or recombinant LPLD has a substrate specificity as shown in, for example, Table 1.
For experiment [1], the target named is T1, purified LPLD (bovine lysophospholipase D) (Bos taurus, UniProt A1A4K5).
T1 construct: The starting material, FCS, and respective fractions obtained in the above-mentioned (1)-(7) were assayed for lysophospholipase D activity; from tissue; host or cells: fetal calf serum (FCS), chromatographic purification
Briefly: LPLD activity assay using purified LPLD at various reaction pHs (Example 12). Format: biochemical. Conditions: purified LPLD of Example 9, 37° C., 405 nm (FIG. 5). Here is the method: (2) Preparation of Reagents
Reagent C: 1-myristoyl-phosphatidyl-p-nitrophenol was dissolved in reagent B to correspond to 10 mmol/L and used as reagent C.
For assay, biochemical automatic analyzer (Toshiba Corporation: TBA-80FR NEO) was used. The purified LPLD (8 μL) obtained in Example 9 and reagent A (240 μL) were pre-warmed at 37° C. for about 15 min, and after addition of reagent C (80 μL), the absorbance at dominant wavelength 405 nm and sub wavelength of 505 nm was measured with lapse of time for about 15 min.

The target of experiment [2] is T2, LPLD in control serum (CONSERA, Lipid Serum II) (Homo sapiens, UniProt Q13822).
T2 construct: Two kinds of commercially available control serum; purchased Nissui Pharmaceutical Co. (CONSERA); Eiken Chemical Co., Ltd. (Lipid Serum II); host or cells: commercial control serum
The experiment in a line: LPLD activity assay at various reaction pHs, control sera (Example 5). Format: biochemical. Conditions: reagent B pH 7.6-8.6, 37° C. (FIG. 1). An excerpt: (1) Preparation of Reagent

The target in the next experiment is LPLD in human serum (Homo sapiens, UniProt Q13822). Briefly: LPLD activity assay with chromogenic substrates, human serum sample (Example 6). Conditions: pH 8.0, 37° C., p-nitrophenol release at 405 nm, compared with 1-acyl-2-hydroxy substrates B and D (FIG. 2-1).
The target of a further experiment is human serum albumin (Homo sapiens, UniProt P02768). Conditions: 5% human serum albumin, reagent B pH 7.6-8.6, 37° C. (FIG. 1).
Sequence of human serum albumin (P02768 25-609): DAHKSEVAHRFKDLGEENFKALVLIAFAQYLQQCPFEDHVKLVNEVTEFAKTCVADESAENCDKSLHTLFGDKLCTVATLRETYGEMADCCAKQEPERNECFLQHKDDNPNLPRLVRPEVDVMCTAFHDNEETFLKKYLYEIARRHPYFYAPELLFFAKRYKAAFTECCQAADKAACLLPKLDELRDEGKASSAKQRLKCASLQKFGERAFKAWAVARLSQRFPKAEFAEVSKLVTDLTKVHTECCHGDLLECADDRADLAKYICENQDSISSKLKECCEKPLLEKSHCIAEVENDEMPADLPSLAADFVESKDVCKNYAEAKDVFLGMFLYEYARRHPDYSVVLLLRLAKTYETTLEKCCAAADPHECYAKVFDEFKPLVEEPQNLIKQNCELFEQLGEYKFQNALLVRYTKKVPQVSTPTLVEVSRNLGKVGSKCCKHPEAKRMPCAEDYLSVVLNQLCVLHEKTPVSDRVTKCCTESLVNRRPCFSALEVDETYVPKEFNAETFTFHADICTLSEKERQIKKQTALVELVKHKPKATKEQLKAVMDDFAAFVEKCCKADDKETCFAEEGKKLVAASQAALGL

Description for LPLD in human serum: 2-[4-(2-hydroxyethyl)-1-piperazinyl]ethanesulfonic acid (100 mmol/L), Triton X-100 (0.01%)
Using human serum as a sample, 5% human serum albumin (fatty acid free: Sigma) solution was used for determining the activity in albumin fraction in the serum, and a 5 U/mL solution of Streptomyces-derived PLD (product abbreviation PLDP: Asahi Chemical Industry Co., Ltd.) was used for determining the reactivity with phospholipase D (PLD).
Each sample (10 μL) and reagent A (150 μL) were dispensed to a microplate and the plate was incubated at 37° C. for about 5 min. Thereto was added reagent C (50 μL) and the absorbance at a dominant wavelength of 405 nm and sub wavelength of 540 nm was measured with the lapse of time. The LPLD activity was determined based on changes in absorbance per minute that depend on p-nitrophenol released by the action of LPLD. The activity is expressed by the amount of p-nitrophenol released in one minute per 1 mL of the reaction mixture.
Excerpt for human serum albumin: Reagent A: N-(2-hydroxyethyl)piperazine-N′-3-propanesulfonic acid (200 mmol/L), Triton X-100 (0.02%)
Reagent B: reagent A was separated and adjusted to pH 7.6, 7.8, 8.0, 8.2, 8.4 and 8.6, diluted 2-fold to give reagent B having various pHs.
citric acid monohydrate (10 mmol/L), Triton X-100 (0.01%), 1-hydroxy-2-linoleoyl-phosphatidyl-p-nitrophenol (Example 3; 10 mmol/L) prepared in the above-mentioned Example.
Two kinds of commercially available control serum, respective test sample 1 (CONSERA: Nissui Pharmaceutical Co.) and test sample 2 (Lipid Serum II: Eiken Chemical Co., Ltd.), and 5% human serum albumin (fatty acid free: Sigma) solution for determination of the activity of albumin fraction in the serum, were used.
Each sample (10 μL) and reagent B (150 μL) were dispensed to a microplate and the plate was incubated at 37° C. for about 5 min. Thereto was added reagent C (50 μL) and the absorbance at a dominant wavelength of 405 nm and sub wavelength of 540 nm was measured with the lapse of time. The LPLD activity was determined based on changes in absorbance per minute that depend on p-nitrophenol released by the action of LPLD. The activity is expressed by the amount of p-nitrophenol released in one minute per 1 mL of the reaction mixture.

“1-alkenyl-2-hydroxy-glycerophosphocholine”: the Reaction product in the experiment with LPLD is 1-alkenyl-2-hydroxy-glycero-3-.

For the compound `CCCCCCCCCCCCCC(=O)OCC(O)COP(=O)(O)Oc1ccc([N+](=O)[O-])cc1` (centres unmarked) [1-myristoyl-phosphatidyl-p-nitrophenol], in experiment [1], the “LPLD activity as a function of reaction pH” value is “stronger activity was found when pH was on the alkaline side”.

Take `CCCCCCCCCCCCC/C=C/[C@@H](O)[C@@H](N)COP(=O)([O-])OCC[N+](C)(C)C` [lysosphingomyelin]: the Reaction product entry in the experiment on LPLD is listed as “Sphingosine-1-phosphate,”.

For `CCCCC/C=C\C/C=C\CCCCCCCC(=O)OC(CO)COP(=O)(O)Oc1ccc([N+](=O)[O-])cc1` (centres unmarked) [substrate A], the “LPLD activity as a function of reaction pH” value in experiment [2] is recorded as “potent when pH is on the alkaline side”. At LPLD in human serum, the “response to human serum” value is on record as “higher”. Moreover, the “activity in a human serum albumin fraction as a function of reaction pH” value on human serum albumin is recorded as “also increases”.

As for `CCCCCCCC/C=C\CCCCCCCC(=O)OC(CO)COP(=O)(O)Oc1ccc([N+](=O)[O-])cc1` (centres unmarked) [substrate C], the “response to human serum” value on LPLD in human serum was “higher”.

In the case of lysophosphatidylcholine, the Reaction product result with LPLD is “lysophosphatidic acid, choline”.

For lysophosphatidylethanolamine, in the experiment on LPLD, the Reaction product entry is “lysophosphatidic acid,”.

lysophosphatidylinositol: the Reaction product result with LPLD is listed as “lysophosphatidic acid,”.

Consider lysophosphatidylserine, for which the Reaction product entry in the experiment with LPLD is reported as “lysophosphatidic acid, serine”.
